Consider 4 molecules from patent US8088729B2 (priority 2005, dated 2012).

The term EC50 denotes the concentration needed to bring the measured effect to its halfway point. For orientation: IC50 means the point on the concentration scale where inhibition reaches its midpoint. By EC90 is commonly meant the concentration at which the effect reaches the 90% level.

“And” between values parts separate entries of the source, which are not always exact repeats. Equal entries are not always repeated. Where two headings read alike, the source gives them in different places.

Data set [1] deals with HCV RNA replicon. In kind it is cell-based, Hepatitis C virus. The note with it: for Inhibition of Viral Activity (% reduction Luc): 20 µM.
The test system of data set [2] is Huh7 ET cell line. The note with it: for Cytotoxicity (% reduction in rRNA)*: single high-test concentration, compared to control cell.
The target of data set [3] is soluble gp120 (sgp120) (Human immunodeficiency virus type 1 group M subtype B, UniProt P03375).
Data set [4] concerns the target sgp120 binding of CD4 on CEM-SS cells (Human immunodeficiency virus type 1 group M subtype B, UniProt P03375). The note with it: pretreatment of sgp120 with Griffithsin, Leu3a epitope availability.
The test system of data set [5] is HIV-1 ROJO. In kind it is cell-based. The note with it: HIV primary isolate ROJO; PBMC; T-tropic; supernatant RT activity; mean value.
Data set [6] deals with gp120. Format: binding, HIV-1. The note with it: 100 ng protein standard, Griffithsin 100 ng/well; FIG. 5a.
Data set [7] concerns the target gp120 (Human immunodeficiency virus type 1 group M subtype B, UniProt P03378). In kind it is binding, HIV-1. The note with it: glycosylated and nonglycosylated HIV-1SF2 gp120, serial dilutions; FIG. 5b.
For data set [8], the target named is sCD4 (Homo sapiens, UniProt P01730). Format: binding.
Data set [9] has as its system Texas/36/91 (H1N1). In kind it is cell-based, influenza A.
Data set [10] deals with HIV-1IIIB. In kind it is cell-based. The note with it: concentration-dependent manner.
Data set [11] has as its system Vero76 cells. In kind it is cell-based.
The subject of data set [12] is HIV-1 Ba-L. Format: cell-based. The note with it: HIV primary isolate Ba-L; macrophage; M-tropic; p24 ELISA; mean value. (In general: In an ELISA, binding on a coated surface is turned into a signal by an enzyme label.)
Data set [13] has as its system SARS virus.
In data set [14] the test system is SARS virus. In kind it is cell-based.
The test system of data set [15] is MDCK cells. The experiment in a line: cells. In kind it is cell-based, canine.
For data set [16], the system named is CEM-SS cells. Also noted: direct cytotoxicity to the host cells: dose or concentration left out as unconfirmed.
The subject of data set [17] is Zaire ebola virus. In kind it is cell-based.
Data set [18] concerns Shandong/09/93 (H3N2). In kind it is cell-based, influenza A.
The target of data set [19] is gp160 (Human immunodeficiency virus type 1 group M subtype B, UniProt P03375). The note with it: 100 ng protein standard, Griffithsin 100 ng/well; FIG. 5a.
The subject of data set [20] is Los Angeles/2/87 (H3N2). Format: cell-based, influenza A.
Data set [21] relates to Vero76 cells. In kind it is cell-based. The source holds these as a separate data set.
The subject of data set [22] is HIV-1 ADA. In kind it is cell-based. The note with it: HIV primary isolate ADA; macrophage; M-tropic; p24 ELISA; mean value.
Data set [23] relates to MDCK cells. The experiment in a line: cells. Format: cell-based, canine. The source holds these as a separate data set.
In data set [24] the test system is T-lymphocytes (CEM-SS), PBMCs, macrophages. The note with it: concentrations 1000-fold higher than the EC50 values.
The test system of data set [25] is MDCK cell line.
Data set [26] relates to cell-cell fusion of uninfected and chronically infected CEM-SS. In kind it is cell-based.
Data set [27] has as its system bovine IgG, α-acid glycoprotein, and aprotinin. Format: binding.
The subject of data set [28] is Panama/2007/99 (H3N2). Format: cell-based, influenza A.
Data set [29] has as its system HIV-1 RF. In kind it is cell-based.
For data set [30], the system named is Beijing/262/95 (H1N1). Format: cell-based, influenza A.
For data set [31], the system named is HIV. In kind it is cell-based. An excerpt: Potent cytoprotective and anti-replicative activities of both natural and His-tagged recombinant Griffithsin were observed using the HIV-1RF strain of HIB in CEM-SS cells. […] In contrast, infectivity of cell-free virus was abolished after pretreatment and removal of Griffithsin.
Data set [32] has as its system Washington/05/96 (H3N2). Format: cell-based, influenza A.
The test system of data set [33] is SARS virus. The source holds these as a separate data set.
Data set [34] relates to fusion of CD4 β-gal cells with HL 2/3 cells. In kind it is cell-based.
The test system of data set [35] is Sydney/5/97 (H3N2). In kind it is cell-based, influenza A.
Setting [36] is: Canis lupus familiaris, MDCK, 72 h.

Sequence of gp120 (Human immunodeficiency virus type 1 group M subtype B, UniProt P03378) (P03378 32-509 limits assumed): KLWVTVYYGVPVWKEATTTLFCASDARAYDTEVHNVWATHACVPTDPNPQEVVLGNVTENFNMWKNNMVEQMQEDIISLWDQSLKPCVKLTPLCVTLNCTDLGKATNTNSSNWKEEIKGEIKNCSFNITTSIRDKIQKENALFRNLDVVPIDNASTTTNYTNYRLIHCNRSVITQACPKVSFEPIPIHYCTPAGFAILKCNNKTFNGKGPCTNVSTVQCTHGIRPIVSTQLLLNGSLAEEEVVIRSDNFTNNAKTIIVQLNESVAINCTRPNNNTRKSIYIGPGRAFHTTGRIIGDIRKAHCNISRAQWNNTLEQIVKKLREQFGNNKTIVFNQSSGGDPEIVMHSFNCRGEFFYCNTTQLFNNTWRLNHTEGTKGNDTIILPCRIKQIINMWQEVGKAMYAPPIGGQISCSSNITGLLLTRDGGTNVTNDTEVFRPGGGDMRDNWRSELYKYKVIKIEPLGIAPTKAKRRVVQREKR

On to IFN-α [reference compound], for which the “Inhibition of Viral Activity (% reduction Luc)” value in data set [1] turned out to be 98.6%. In addition, in [2] (72 hr), the “Cytotoxicity (% reduction in rRNA)*” value is recorded as 98.4%.

In the case of Cyanovirin-N [reference compound], the “recognition of sgp120 by Griffithsin” value in data set [3] (effect of cyanovirin-N) is reported as “interfered strongly”.

Turning to Griffithsin, the “CD4-dependent sgp120 binding” value in [4] is on record as “completely blocked”. For the same molecule, the EC50 is 0.63 nM in [5]; 0.06 µg/mL in [9]; 0.098 nM in [12]; 4 µg/mL and 2 µg/mL in data set [14]; 0.018 µg/mL in data set [18]; 0.037 µg/mL in [20]. Besides, the EC50 was determined as 0.5 nM in data set [22]; 0.006 µg/mL in data set [28]; 0.043 nM in data set [29] (HIV-1 laboratory strain RF, CEM-SS, T-tropic, XTT-tetrazolium, mean value); 0.07 µg/mL in data set [30]; 0.016 µg/mL in data set [32]; 14 µg/mL in data set [33]. Moreover, the half-maximal effective concentration (EC50) in data set [35] came to 0.016 µg/mL. In addition, the “EC50 (anti-HCV)” value in data set [1] was found to be 7.17 µg/mL. Also, the “Inhibition of Viral Activity (% reduction Luc)” value in [1] came to 60%. In addition, the “interaction with gp120 (ELISA, absorbance at 405 nm)” value in data set [6] is on record as “direct interaction”. The “binding of Griffithsin to sgp120” value in data set [7] was “both concentration-dependent and glycosylation-dependent”. Further, the “interaction with cCD4 (ELISA)” value in data set [8] was “little or no detectable interaction”. The “cell-free HIV-1IIIB fusion and infection of β-gal cells” value in data set [10] was “inhibited”. The half-maximal inhibitory concentration (IC50) is over 100 µg/mL in data set [11], over 10 µg/mL in [15], over 100 µg/mL in data set [21] and over 10 µg/mL in data set [23]. Also, the “IC50 in each assay” value in data set [11] is reported as “greater than 100 μg/ml”. For the same molecule, the 90% effect concentration (EC90) in [13] was found to be 5 µg/mL. For the same molecule, the “average EC50” value in [14] amounted to 3 µg/mL. Further, the “direct cytotoxicity to the host cells” value in data set [16] (highest tested concentrations) was “no significant evidence of direct cytotoxicity”. For the same molecule, the “direct cytotoxicity to the uninfected control cells” value in [16] (highest tested concentrations of Griffithsin (78.3 to 783 nM)) is listed as “little or no evidence of direct cytotoxicity”. Moreover, the anti-ebola virus activity entry in [17] is given as “low μg/ml range”. Also, the “interaction with gp160 (ELISA)” value in [19] is reported as “direct interaction”. Further, the “toxicity against any of the cell lines” value in [24] is given as “did not show any toxicity”. Also, in data set [25], the “toxicity to the MDCK cell line” value is “not found to be toxic”. In data set [26], the “inhibition of cell-cell fusion” value was “concentration-dependent inhibition”. Further, the “interaction with other reference proteins (ELISA)” value in [27] is reported as “little or no detectable interaction”. Moreover, the “anti-HIV activity, EC50” value in data set [29] (CEM-SS cells infected with HIV-1, FIG. 4) is “low nanomolar range”. For the same molecule, the “inhibition of virus-induced cell killing” value in data set [29] (HIV-1RF in CEM-SS cells) is listed as “concentration-dependent inhibition”. The “supernatant reverse transcriptase and viral core antigen, p24” value in data set [29] (HIV-1RF in CEM-SS cells) is given as “concomitant decreases”. For the same molecule, the “subsequent binding of cyanovirin-N to sgp120” value in data set [3] (Griffithsin pretreatment of sgp120) is “did not block”. Also, the “recognition of sgp120 by mAbs that recognize the C1 region (or V3 loop), and the mAb 17b” value in data set [3] (effect of Griffithsin) is on record as “little or no effect”. The “recognition of sgp120 by the mAbs 48d and 2G12” value in data set [3] (effect of Griffithsin) is on record as “interfered strongly”. Besides, in data set [3] (effect of Griffithsin), the “sCD4 and mAb IgG 1b12 binding to sgp120” value is on record as “moderately interfered”. The “subsequent binding of Griffithsin to sgp120” value in data set [3] (sgp120 pretreated with sCD4 and the mAbs IgG1b12, 48d, and 2G12) is “did not block”. The “toxicity level (cytotoxicity)” value in [2] (highest test concentration of 10 μg/ml, FIG. 7) is given as “never reached a toxicity level”. Moreover, the “overall reduction in cell growth” value in data set [2] (single high-test concentration of 20 μM, 72 hr) is 25%. For the same molecule, the “Cytotoxicity (% reduction in rRNA)*” value in [2] (72 hr) came to 74.5%. Further, the “infectivity of cell-free virus” value in [31] (after pretreatment of virus and removal of Griffithsin) is listed as “abolished”. Also, the “susceptibility of pretreated uninfected CEM-SS cells to HIV infection” value in [31] (after the removal of Griffithsin) is listed as “retained normal susceptibility”. Moreover, the “fusion of CD4 β-gal cells with HL 2/3 cells” value in [34] is “inhibited”.

As for `NC(=O)c1ncn([C@@H]2O[C@H](CO)[C@@H](O)[C@H]2O)n1` [Ribavirin, reference compound], the IC50 in data set [15] (setting [36]) and in data set [23] (setting [36]) was over 100 µg/mL in each case.
